# Like-named read-outs stand apart in the source and are kept apart here.
# Experiments:
# M. tuberculosis H37Rv [1] = assay: microbe, parasite or virus in culture; assay type: cell-based; conditions: for inhibition of growth at 12.5 µg/mL: Mycobacterium tuberculosis, at 12.5% μg/ml (so in the source), read-out: Primary Screen PI (% inhibition of growth); for inhibition of growth at 12.5 µg/mL / % Inh: M. tuberculosis H37Rv; for activity against M. tuberculosis H37Rv in the primary screen: in words; for % Inh: screen concentration 12.5 g/ml [sic], Table 8
# M. tuberculosis H37Rv [2] = assay: MIC99 determination, BACTEC 460 radiometric system; assay type: cell-based
# Vero cells = assay: Cytotoxicity in Vero cells (MTS assay); assay type: cell-based; conditions: Chlorocebus sabaeus
# M. tuberculosis H37Ra = assay: MIC/MBC, colorimetric (alamar blue) microdilution broth assay; assay type: cell-based; conditions: Mycobacterium tuberculosis, H37RA, M. tuberculosis H37Ra, positive control; read-out: MIC
# M. tuberculosis FtsZ [3] = target: T1, M. tuberculosis FtsZ (Mycobacterium tuberculosis, UniProt P9WN95); assay: biochemical; conditions: read-out: FtsZ polymerization ID50
# M. tuberculosis FtsZ [4] = target: T1, M. tuberculosis FtsZ; assay: biochemical; conditions: 100 μM compound, Table 6; read-out: M. tuberculosis FtsZ GTP Hydrolysis % Inhibition (100 μM)
# bovine tubulin = assay: Light scattering assay for tubulin polymerization; assay type: biochemical; conditions: read-out: tubulin polymerization ID50
# [5] = Mycobacterium tuberculosis, M. tuberculosis H37Rv, Table 3, read-out: Screen 2 MIC99
# [6] = 72 h, Vero cells, 72 h exposure, Table 3, read-out: IC50
# [7] = Vero cells, Table 8, read-out: IC50
# [8] = Mycobacterium tuberculosis, M. tuberculosis H37Rv, Table 8, read-out: MIC
# [9] = Mycobacterium tuberculosis, H37RV
# T1 sequence (P9WN95 whole entry, looked up): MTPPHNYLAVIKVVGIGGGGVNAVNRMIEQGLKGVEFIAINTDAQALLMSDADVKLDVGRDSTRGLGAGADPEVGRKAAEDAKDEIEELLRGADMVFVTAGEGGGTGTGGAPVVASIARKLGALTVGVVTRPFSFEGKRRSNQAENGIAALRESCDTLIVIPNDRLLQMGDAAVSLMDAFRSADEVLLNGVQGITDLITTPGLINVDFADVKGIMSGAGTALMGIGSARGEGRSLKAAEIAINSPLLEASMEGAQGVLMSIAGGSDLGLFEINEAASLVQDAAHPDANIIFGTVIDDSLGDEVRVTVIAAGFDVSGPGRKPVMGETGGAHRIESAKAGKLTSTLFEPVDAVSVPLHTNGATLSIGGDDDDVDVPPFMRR
SMILES,% Inh (M. tuberculosis H37Rv [1]),IC50 (Vero cells; [7]),MIC (M. tuberculosis H37Rv [2]; [8]),further results
"CCOC(=O)Nc1cc(NCc2ccc(S(N)(=O)=O)cc2)c2nc(-c3ccccc3)c(-c3ccccc3)nc2n1 [Compound 4427-026-15, [2,3-Diphenyl-8-(4-sulfamoyl-benzylamino)-pyrido[2,3-b]pyrazin-6-yl]-carbamic acid ethyl ester]",–,–,–,inhibition of growth at 12.5 µg/mL (M. tuberculosis H37Rv [1]): 97%; activity against M. tuberculosis H37Rv in the primary screen (M. tuberculosis H37Rv [1]): demonstrated activity; MIC99 (M. tuberculosis H37Rv [2]; [5]): 0.39 µg/mL; IC50 (Vero cells; [6]): > 6.25 µg/mL
CCOC(=O)Nc1cc(NC(C)CCCN(CC)CC)c2nc(-c3ccccc3)c(-c3ccccc3)nc2n1 (stereo not shown) [Compound A1],100%,4.3 µg/mL,–,"MIC (M. tuberculosis H37Rv [2]; M. tuberculosis H37Rv, Table 8): 0.2 µg/mL"
CCOC(=O)Nc1cc2c(c(N)n1)N=C(c1ccccc1)CCN2 [Compound A2],100%,> 200 µg/mL,6.25 µg/mL,–
CCOC(=O)Nc1cc(NC(C)CCCN(CC)CC)c2ncc(-c3ccc(Cl)c(Cl)c3)nc2n1.Cl.Cl (stereo not shown) [Compound A7],99%,–,3.13 µg/mL,IC50 (Vero cells): 1.89 µg/mL
CCOC(=O)Nc1cc(N)c(N)c(NC(C)C(O)c2ccccc2)n1 (stereo not shown) [Compound A10],99%,> 200 µg/mL,12.5 µg/mL,–
CC(C)OC(=O)Nc1cc2c(c(N)n1)N=C(c1ccccc1)[C@H](C)N2 [Compound A11],99%,1.51 µg/mL,12.5 µg/mL,–
CCOC(=O)Nc1cc2c(c(N)n1)N=C(c1ccc3c(c1)OCO3)[C@H](C)N2 [Compound A12],99%,1.51 µg/mL,12.5 µg/mL,–
CCOC(=O)Nc1cc(NC(C)CCCN(CC)CC)c2nc(-c3ccccc3)c(-c3ccccc3)nc2n1.Cl (stereo not shown) [Compound A21],98%,–,0.1 µg/mL,IC50 (Vero cells): 8.3 µg/mL
CCOC(=O)Nc1cc(NC(C)CCCN(CC)CC)c2ncc(-c3ccc(OC)cc3)nc2n1.Cl (stereo not shown) [Compound A22],98%,–,1.56 µg/mL,IC50 (Vero cells): 8.7 µg/mL
CCOC(=O)Nc1cc(NC(C)CCCN(CC)CC)c2ncc(-c3ccc(C(F)(F)F)cc3)nc2n1 (stereo not shown) [Compound A23],98%,–,–,MIC (M. tuberculosis H37Rv [2]; [9]): 6.25 µg/mL; IC50 (Vero cells): 1.6 µg/mL
CCOC(=O)Nc1cc(NC(C)CCCN(CC)CC)c2nc(-c3ccc(F)cc3)cnc2n1 (stereo not shown) [Compound A25],98%,–,–,MIC (M. tuberculosis H37Rv [2]; [9]): 12.5 µg/mL; IC50 (Vero cells): 6.8 µg/mL
C[C@@H]1Nc2cc(NC(=O)OCc3ccccc3)nc(N)c2N=C1c1ccccc1 [Compound A26],98%,1.51 µg/mL,12.5 µg/mL,–
CCOC(=O)Nc1cc(NCc2ccc(S(N)(=O)=O)cc2)c2nc(-c3ccccc3)c(-c3ccccc3)nc2n1 [Compound A33],97%,> 6.25 µg/mL,0.39 µg/mL,–
CCOC(=O)Nc1cc(NC(C)CCCN(CC)CC)c2nc(-c3ccc(Cl)cc3)cnc2n1.Cl.Cl (stereo not shown) [Compound A34],97%,–,6.25 µg/mL,IC50 (Vero cells): 2.28 µg/mL
CCOC(=O)Nc1cc(NC(C)C(O)COc2ccccc2)c(N)c(N)n1 (stereo not shown) [Compound A35],97%,> 1000 µg/mL,12.5 µg/mL,–
CCOC(=O)Nc1cc2[nH]c(-c3ccc4c(c3)OCO4)nc2c(NC(c2ccccc2)c2ccccc2)n1 [Compound A39],95%,> 200 µg/mL,1.56 µg/mL,–
CCCCC1=Nc2c(cc(NC(=O)OCC)nc2N)NC1C (stereo not shown) [Compound A41],95%,1.51 µg/mL,12.5 µg/mL,–
CCOC(=O)Nc1cc2c(c(N)n1)N=C(c1ccc(OC)cc1)C(C)N2 (stereo not shown) [Compound A44],94%,1.53 µg/mL,12.5 µg/mL,–
CCOC(=O)Nc1cc2[nH]c(-c3ccc(OC)cc3)nc2c(NC(c2ccccc2)c2ccccc2)n1 [Compound A46],93%,189 µg/mL,3.13 µg/mL,–
CCOC(=O)Nc1cc2nc(-c3ccccc3)c(-c3ccccc3)nc2c(NC(=O)OCC)n1 [Compound A51],92%,–,> 6.25 µg/mL,–
CCOC(=O)Nc1cc2[nH]c(-c3ccccc3)nc2c(NC(c2ccccc2)c2ccccc2)n1 [Compound A52],92%,> 200 µg/mL,12.5 µg/mL,–
CCOC(=O)Nc1cc2c(c(N)n1)N=C(CN(C)c1ccccc1)CN2 [Compound A53],92%,0.41 µg/mL,12.5 µg/mL,–
CCOC(=O)Nc1cc2c(c(N)n1)N=C(c1ccccc1)C(c1ccccc1)O2 (stereo not shown) [Compound A55],90%,–,6.25 µg/mL,–
CCOC(=O)Nc1cc2c(c(N)n1)N=C(c1ccccc1)[C@H](C)O2 [Compound A56],90%,–,12.5 µg/mL,–
"CC[C@@H](CO)NCCN[C@@H](CC)CO [Ethambutol, ethambutol, reference compound]",–,–,–,MIC (M. tuberculosis H37Ra): 2 µg/mL
"CCOC(=O)Nc1cc(NC(C)C(O)COc2ccccc2)c(N)c(N)n1 (stereo not shown) [SRI-7405, [5,6-Diamino-4-(2-hydroxy-1-methyl-3-phenoxy-propylamino)-pyridin-2-yl]-carbamic acid ethyl ester]",–,–,–,inhibition of growth at 12.5 µg/mL (M. tuberculosis H37Rv [1]): 97%; activity against M. tuberculosis H37Rv in the primary screen (M. tuberculosis H37Rv [1]): demonstrated activity; MIC99 (M. tuberculosis H37Rv [2]; [5]): 12.5 µg/mL; IC50 (Vero cells; [6]): > 1000 µg/mL
"CCOC(=O)Nc1cc2c(c(N)n1)N=C(c1ccccc1)CCN2 [SRI-7614, (1-Amino-8-phenyl-6,7-dihydro-5H-2,5,9-triaza-benzocyclohepten-3-yl)-carbamic acid ethyl ester]",–,–,–,"inhibition of growth at 12.5 µg/mL (M. tuberculosis H37Rv [1]): 100%; activity against M. tuberculosis H37Rv in the primary screen (M. tuberculosis H37Rv [1]): demonstrated activity; MIC99 (M. tuberculosis H37Rv [2]; [9]): 6.25 µg/mL; MIC99 (M. tuberculosis H37Rv [2]; Mycobacterium tuberculosis, H37RV, read-out: Screen 2 MIC99): 6.25 µg/mL; MIC99 (M. tuberculosis H37Rv [2]; Mycobacterium tuberculosis, M. tuberculosis H37Rv, read-out: MIC99): 19 µM; IC50 (Vero cells; [6]): > 200 µg/mL; IC50 (Vero cells; Vero cells, read-out: IC50): > 200 µg/mL; IC50 (M. tuberculosis FtsZ [3]): 60 µM; inhibition at 100 µM (M. tuberculosis FtsZ [4]): 25%; IC50 (bovine tubulin): 4 µM"
